For one experiment, the target named is T1, FGFR1 (Homo sapiens, UniProt P11362).
T1 construct: cytoplasmic domain [398-822 (terminal) amino acids]; purchased Carna 08-133
The experiment is described as follows: FGFR1 kinase activity inhibition assay (LanthaScreen TR-FRET). In kind it is biochemical. In a few lines: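 Emission ratio 520 nm/495 nm by TR-FRET after stopping reaction with 10 mM EDTA and 60 min incubation at 22°C. Inhibition normalized between no-enzyme (min) and DMSO (max) controls, then fitted to a four-parameter curve (Top, Bottom, HillSlope).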

The next experiment addresses T2, FGFR3 (Homo sapiens, UniProt P22607).
T2 construct: FGFR3's cytoplasmic domain [436-806 (terminal) amino acids]; purchased Carna 08-135
The experiment is described as follows: FGFR3 kinase activity inhibition assay (LanthaScreen TR-FRET). The experiment is classed as biochemical. Conditions: for Selectivity (X) FGFR1/FGFR3: ratio of IC50 FGFR1/FGFR3, selectivity towards FGFR3. In a few lines:
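Read-out is TR-FRET, with the 520 nm/495 nm emission ratio normalised to DMSO (max) and enzyme-free (min) controls. Enzyme was the FGFR3 cytoplasmic domain, residues 436-806. EDTA (10 mM) stopped the reaction, followed by 60 min at 22 °C before reading.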
A general note: TR-FRET usually uses a lanthanide donor and a delayed reading to cut background.

Setting [1] is: FGFR1 kinase, TR-FRET, read-out: IC50 (nM) FGFR1.
Setting [2] is: FGFR3 kinase, TR-FRET, read-out: IC50 (nM) FGFR3.

The record followed here is patent EP4644383A1 (Jiangsu Yahong Meditech Co., Ltd., priority 2022, dated 2024).

Each structure is given as a SMILES string. Where two headings read alike, the source gives them in different places.

T1 sequence (P11362 398-822): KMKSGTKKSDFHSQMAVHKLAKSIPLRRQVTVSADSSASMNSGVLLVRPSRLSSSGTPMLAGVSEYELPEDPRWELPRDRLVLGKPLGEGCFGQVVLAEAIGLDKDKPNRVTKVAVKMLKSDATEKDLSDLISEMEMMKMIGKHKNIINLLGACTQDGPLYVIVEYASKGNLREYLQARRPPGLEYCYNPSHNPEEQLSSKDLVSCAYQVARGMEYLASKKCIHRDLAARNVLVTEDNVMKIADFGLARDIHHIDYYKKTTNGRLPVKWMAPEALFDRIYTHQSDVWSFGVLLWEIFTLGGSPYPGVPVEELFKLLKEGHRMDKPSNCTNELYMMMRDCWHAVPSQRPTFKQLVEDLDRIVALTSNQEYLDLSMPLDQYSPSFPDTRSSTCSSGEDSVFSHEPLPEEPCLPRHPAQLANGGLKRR
T2 sequence (P22607 436-806): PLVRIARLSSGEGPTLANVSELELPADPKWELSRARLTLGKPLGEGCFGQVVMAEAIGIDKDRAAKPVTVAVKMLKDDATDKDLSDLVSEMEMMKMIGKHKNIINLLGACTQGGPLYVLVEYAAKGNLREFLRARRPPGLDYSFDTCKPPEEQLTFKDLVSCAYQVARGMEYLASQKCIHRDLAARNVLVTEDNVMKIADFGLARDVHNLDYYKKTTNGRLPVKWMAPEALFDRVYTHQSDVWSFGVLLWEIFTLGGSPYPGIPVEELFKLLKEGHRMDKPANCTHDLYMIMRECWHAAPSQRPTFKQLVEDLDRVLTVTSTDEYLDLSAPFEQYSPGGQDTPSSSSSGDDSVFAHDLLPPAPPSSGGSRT

For the compound `Cc1ccc2nnccc2c1C(C)Oc1ccc2[nH]nc(-c3cnn(C)c3)c2c1` (stereo not shown) [Example 168, 6-methyl-5-(1-((3-(1-methyl-1H-pyrazol-4-yl)-1H-indazol-5-yl)oxy)ethyl)cinnoline], the IC50 (commonly the midpoint of a concentration-inhibition curve) at FGFR1 (setting [1]) fell in the range of 10 to 100 nM; at FGFR3 (setting [2]) it was 1 to 10 nM. The “Selectivity (X) FGFR1/FGFR3” value at FGFR3 was “A (A represents 1 ≤ multiple X<20)”.
As for `CC(Oc1ccc2[nH]nc(-c3cnn(C4CN(C(N)=O)C4)c3)c2c1)c1cc(Cl)cc2nccnc12` (stereo not shown) [Example 169, 3-(4-(5-(1-(7-chloroquinoxalin-5-yl)ethoxy)-1H-indazol-3-yl)-1H-pyrazol-1-yl)aze tidine-1-carboxamide], the IC50 is 10 to 100 nM on FGFR1 (setting [1]) and 1 to 10 nM on FGFR3 (setting [2]). The “Selectivity (X) FGFR1/FGFR3” value on FGFR3 is given as “A (A represents 1 ≤ multiple X<20)”.
On FGFR1, `CC(Oc1ccc2[nH]nc(-c3cnn(C4CN(C(=O)CN)C4)c3)c2c1)c1cccc2nccnc12` (stereo not shown) [Example 175, 2-amino-1-(3-(4-(5-(1-(quinoxalin-5-yl)ethoxy)-1H-indazol-3-yl)-1-pyrazol-1-yl)azetidin-1-yl)ethan-1-one] showed an IC50 of 1 to 10 nM. At FGFR3, the IC50 was below 1 nM and the “Selectivity (X) FGFR1/FGFR3” value is “A (A represents 1 ≤ multiple X<20)”.
`CC(Oc1ccc2[nH]nc(-c3cnn(C)c3)c2c1)c1nccn2nccc12` (stereo not shown) [Example 176, 4-(1-((3-(1-methyl-1H-pyrazol-4-yl)-1H-indazol-5-yl)oxy)ethyl)py razolo[1,5-a]pyrazine]: the IC50 at FGFR1 (setting [1]) was 10 to 100 nM; at FGFR3 (setting [2]), 1 to 10 nM. Also, the “Selectivity (X) FGFR1/FGFR3” value at FGFR3 is “A (A represents 1 ≤ multiple X<20)”.
For `CC(Oc1ccc2[nH]nc(-c3cnn(C4CN(C(=N)N)C4)c3)c2c1)c1cccc2nccnc12` (stereo not shown) [Example 177, 3-(4-(5-(1-(quinoxalin-5-yl)ethoxy)-1H-indazol-3-yl)-1H-pyrazol-1-yl)azetidine-1-carboximidamide], in that order: 10 to 100 nM, 1 to 10 nM and “B (B represents 20 ≤ multiple X<50)”.
`CC(Oc1ccc2[nH]nc(-c3cnn(C4CN(C(=O)N(C)C)C4)c3)c2c1)c1cccc2nccnc12` (stereo not shown) [Example 178, N,N-dimethyl-3-(4-(5-(1-(quinoxalin-5-yl)ethoxy)-1H-indazol-3-yl)-1H-pyrazol-1-yl)azetidine-1-carboxamide]: the IC50 is 1 to 10 nM on FGFR1 (setting [1]) and below 1 nM at FGFR3 (setting [2]). The “Selectivity (X) FGFR1/FGFR3” value at FGFR3 was “B (B represents 20 ≤ multiple X<50)”.
For `CC(Oc1ccc2[nH]nc(-c3cnn(CCCS(N)(=O)=O)c3)c2c1)c1cccc2nccnc12` (stereo not shown) [Example 179, 3-(4-(5-(1-(quinoxalin-5-yl)ethoxy)-1H-indazol-3-yl)-1H-pyrazol-1-yl)propane-1-sulfonamide], the IC50 on FGFR1 (setting [1]) is 10 to 100 nM; on FGFR3 (setting [2]) it was below 1 nM. Moreover, the “Selectivity (X) FGFR1/FGFR3” value at FGFR3 was “B (B represents 20 ≤ multiple X<50)”.
For `CC(Oc1ccc2[nH]nc(-c3cnn(C4CN(C(=O)CC#N)C4)c3)c2c1)c1cccc2nccnc12` (stereo not shown) [Example 180, 3-oxo-3-(3-(4-(5-(1-(quinoxalin-5-yl)ethoxy)-1H-indazol-3-yl)-1H-pyrazol-1-yl)azetidin-1-yl)propionitrile], in that order: 1 to 10 nM, 1 to 10 nM and “A (A represents 1 ≤ multiple X<20)”.
For `CC(Oc1ccc2[nH]nc(-c3cnn(C)c3)c2c1)c1cccn2ncc(C#N)c12` (stereo not shown) [Example 186, 4-(1-((3-(1-methyl-1H-pyrazol-4-yl)-1H-indazol-5-yl)oxy)ethyl)py razolo[1,5-a]pyridine-3-carbonitrile], the 50% inhibitory concentration (IC50) on FGFR1 (setting [1]) was 1 to 10 nM; on FGFR3 (setting [2]), below 1 nM. Besides, the “Selectivity (X) FGFR1/FGFR3” value on FGFR3 is given as “A (A represents 1 ≤ multiple X<20)”. Besides, at FGFR3 (ratio of IC50 FGFR4/FGFR3, selectivity towards FGFR3), the “Selectivity (X) FGFR4/FGFR3” value is “A (A represents 1 ≤ multiple X<20)”.
`Cc1cc(C(C)Oc2ccc3[nH]nc(-c4cnn(C5CN(C(=O)CO)C5)c4)c3c2)c2cccnc2c1` (stereo not shown) [Example 192, 2-hydroxy-1-(3-(4-(5-(1-(7-methylquinolin-5-yl)ethoxy)-1H-indazol-3-yl)-1-pyrazol-1-yl)azetidin-1-yl)ethan-1-one]: the results for the IC50 on FGFR1 (setting [1]) and on FGFR3 (setting [2]) were 10 to 100 nM and below 1 nM, respectively. In addition, the “Selectivity (X) FGFR1/FGFR3” value at FGFR3 is reported as “B (B represents 20 ≤ multiple X<50)”.
As to `CNCC(=O)N1CC(n2cc(-c3n[nH]c4ccc(OC(C)c5cccc6nccnc56)cc34)cn2)C1` (stereo not shown) [Example 193, 2-(methylamino)-1-(3-(4-(5-(1-(quinoxalin-5-yl)ethoxy)-1H-indazol-3-yl)-1H-pyrazol-1-yl)azetidin-1-yl)ethan-1-one], the half-inhibitory concentration (IC50) on FGFR1 (setting [1]) was 1 to 10 nM; on FGFR3 (setting [2]) it was below 1 nM. Besides, the “Selectivity (X) FGFR1/FGFR3” value at FGFR3 is reported as “A (A represents 1 ≤ multiple X<20)”.
`CC(Oc1ccc2[nH]nc(-c3cnn(C4CC(N(C)C(=O)C(C)(C)N)C4)c3)c2c1)c1cccc2nccnc12` (stereo not shown) [Example 196, 2-amino-N,2-dimethyl-N-(3-(4-(5-(1-(quinoxalin-5-yl)ethoxy)-1H-indazol-3-yl)-1H-pyrazol-1-yl)cyclobutyl)propanamide]: the results for the IC50 at FGFR1 (setting [1]) and on FGFR3 (setting [2]) were 10 to 100 nM and below 1 nM, respectively. In addition, on FGFR3, the “Selectivity (X) FGFR1/FGFR3” value was “B (B represents 20 ≤ multiple X<50)”.
For the compound `CC(Oc1ccc2[nH]nc(-c3cnn(C4CC(N(C)C(=O)C(C)(C)O)C4)c3)c2c1)c1cccc2nccnc12` (stereo not shown) [Example 197, 2-hydroxy-N,2-dimethyl-N-(3-(4-(5-(1-(quinoxalin-5-yl)ethoxy)-1H-indazol-3-yl)-1H-pyrazol-1-yl)cyclobutyl)prop anamide], the IC50 was 10 to 100 nM on FGFR1 (setting [1]) and below 1 nM on FGFR3 (setting [2]). Moreover, at FGFR3, the “Selectivity (X) FGFR1/FGFR3” value is listed as “B (B represents 20 ≤ multiple X<50)”.
With `CC(Oc1ccc2[nH]nc(-c3cnn(C4CC(N(C)S(C)(=O)=O)C4)c3)c2c1)c1cccc2nccnc12` (stereo not shown) [Example 198, N-methyl-N-(3-(4-(5-(1-(quinoxalin-5-yl)ethoxy)-1H-indazol-3-yl)-1H-pyrazol-1-yl)cyclobutyl)methanesulfonamide], the IC50 on FGFR1 (setting [1]) is 10 to 100 nM; on FGFR3 (setting [2]) it was below 1 nM. Further, on FGFR3, the “Selectivity (X) FGFR1/FGFR3” value is recorded as “B (B represents 20 ≤ multiple X<50)”.
Turning to `CC(=O)N(C)C1CC(n2cc(-c3n[nH]c4ccc(OC(C)c5cccc6nccnc56)cc34)cn2)C1` (stereo not shown) [Example 199, N-methyl-N-(3-(4-(5-(1-(quinoxalin-5-yl)ethoxy)-1H-indazol-3-yl)-1H-pyrazol-1-yl)cyclobutyl)acet amide], the IC50 at FGFR1 (setting [1]) was 10 to 100 nM; at FGFR3 (setting [2]), below 1 nM. Moreover, the “Selectivity (X) FGFR1/FGFR3” value at FGFR3 is listed as “A (A represents 1 ≤ multiple X<20)”.
`CC(Oc1ccc2[nH]nc(-c3cnn(CC4CC(=O)N(C)C4)c3)c2c1)c1cccc2nccnc12` (stereo not shown) [Example 200, 1-methyl-4-((4-(5-(1-(quinoxalin-5-yl)ethoxy)-1H-indazol-3-yl)-1H-pyrazol-1-yl)methyl)pyrrolidin-2-one]: the IC50 was 10 to 100 nM on FGFR1 (setting [1]) and 1 to 10 nM on FGFR3 (setting [2]). The “Selectivity (X) FGFR1/FGFR3” value at FGFR3 is given as “B (B represents 20 ≤ multiple X<50)”.
For `CC(Oc1ccc2[nH]nc(-c3cnn(C4CN(C(=O)NC5CC5)C4)c3)c2c1)c1cccc2nccnc12` (stereo not shown) [Example 201, N-cyclopropyl-3-(4-(5-(1-(quinoxalin-5-yl)ethoxy)-1H-indazol-3-yl)-1H-pyrazol-1-yl)azetidine-1-carboxamide], in that order: 1 to 10 nM, below 1 nM and “A (A represents 1 ≤ multiple X<20)”.
Regarding `CC(Oc1ccc2[nH]nc(-c3cnn(C4CC(S(C)(=N)=O)C4)c3)c2c1)c1cccc2nccnc12` (stereo not shown) [Example 202, imino(methyl)(3-(4-(5-(1-(quinoxalin-5-yl)ethoxy)-1H-indazol-3-yl)-1H-pyrazol-1-yl)cyclobutyl)-sulfanone], the 50% inhibitory concentration (IC50) was 1 to 10 nM at FGFR1 (setting [1]) and below 1 nM at FGFR3 (setting [2]). Further, the “Selectivity (X) FGFR1/FGFR3” value at FGFR3 is listed as “A (A represents 1 ≤ multiple X<20)”.
Consider `CC(Oc1ccc2[nH]nc(-c3cnn(C4CN(C(=O)C5(N)CC5)C4)c3)c2c1)c1cccc2nccnc12` (stereo not shown) [Example 205, (1-aminocyclopropy 1)(3-(4-(5-(1-(quinoxalin-5-yl)ethoxy)-1H-indazol-3-yl)-1H-pyrazol-1-yl)azetidin-1-yl)methanone], for which the IC50 on FGFR1 (setting [1]) was 1 to 10 nM; on FGFR3 (setting [2]) it was below 1 nM. At FGFR3, the “Selectivity (X) FGFR1/FGFR3” value was “B (B represents 20 ≤ multiple X<50)”.
As for `CC(Oc1ccc2[nH]nc(-c3cnn(C4CN(C(=O)C(C)(C)O)C4)c3)c2c1)c1cc(Cl)cc2ncccc12` (stereo not shown) [Example 206, 1-(3-(4-(5-(1-(7-chloroquinolin-5-yl)ethoxy)-1H-indazol-3-yl)-1H-pyrazol-1-yl)azetidin-1-yl)-2-hydroxy-2-methylpropan-1-one], the IC50 fell in the range of 10 to 100 nM on FGFR1 (setting [1]) and 1 to 10 nM on FGFR3 (setting [2]). Also, the “Selectivity (X) FGFR1/FGFR3” value at FGFR3 was “C (C represents 50 ≤ multiple X<100)”.
The like results for `CC(Oc1ccc2[nH]nc(-c3cnn(C4CN(C(=O)CO)C4)c3)c2c1)c1cc(Cl)cc2nccnc12` (stereo not shown) [Example 207, 1-(3-(4-(5-(1-(7-chloroquinoxalin-5-yl)ethoxy)-1H-indazol-3-yl)-1H-pyrazol-1-yl)azetidin-1-yl)-2-hydroxyethan-1-one] were, in that order, 10 to 100 nM, below 1 nM and “B (B represents 20 ≤ multiple X<50)”.
